# According to patent publication US20150079000A1, “Labelled Quinoxaline Derivatives as Multimodal Radiopharmaceuticals and Their Precursors” (INSTITUT NATIONAL DE LA SANTET DE LA RECHERCHE MEDICALE, priority 2012, published 2015):
# How the values were obtained:
# [1] = radiochemical stability of the radiotracer after preparation; assay type: physicochemical
# [2] = system: B16 murine melanoma tumours; experiment: Ex vivo biodistribution of [18F]-labelled compounds; assay type: in vivo, C57BL/6J mice
# Procedure: (§1) All our studies were performed in accordance with French and European Economic Community (86-609, EEC) guidelines for care of laboratory animals. Protocols were performed under the authorization of the French Direction des Services Veterinaires (authorization no. CE 86-12). Male C57BL/6J mice were originating from Charles River laboratories and maintained at 21° C. with a 12 h/12 h light/dark cycle, fed with a breeding diet (diet A04 from Safe, Villemoisson, France) and received water ad libitum. For transplantation B16BL6 cell suspension were grown in a monolayer culture to confluence, after which cells were trypsinized, washed with phosphate buffer saline (PBS) and they were resuspended in PBS. Mice were anesthetized by isoflurane (4% for induction and 2±0.5% for maintaining in oxygen flux) inhalation. The primary tumour model was induced by subcutaneous injection of 3×10^5 melanoma B16B16 cells in 0.1 mL on the right shoulder of mice.
# Ex vivo biodistribution studies: An ex vivo biodistribution study was performed for better comparison of [^18F](1) and [^18F](5). Experimentations were undertaken at day-10 or day-14 after cell inoculation (n=3-6/group). […] Tumours and major organs and tissues were promptly excised, harvested, weighted and their radioactivity counted using a calibrated γ-counter with a 400 to 600 keV energy window. After radioactive decay correction, results were expressed as percentage of injected dose per gram of tissue (% ID/g).
# [3] = system: B16BL6 tumour; experiment: PET imaging in B16BL6 tumour bearing mice; assay type: in vivo, C57BL/6J mice; settings: 1 h p.i., day-15
# Procedure: as §1
# Whole-body PET scans were acquired 1 h after bolus injection of […] of the appropriate [^18F]-compound in a volume of 0.15 ml via the tail vein. Mice were anesthetized by intraperitoneal (i.p.) administration (200 μL/mouse) of a ketamine-xylazine mixture in saline: ketamine (100 mg/kg, Imalgene™, Rhône Mérieux, Lyon, France) and xylazine (10 mg/kg, Rompun™, Bayer, France) before radiotracer injection and imaged by using a small-animal PET device, eXplore Vista microPET instrument (GE Healthcare). PET images were acquired by using static mode during 20 min. The acquired data were reconstructed using the 2-Dimensional ordered-subsets expectation maximization (OSEM) algorithm and corrected from decay, scatter and randoms. No corrections were applied for partial volume or attenuation.
# Regional tracer uptake was quantified by standard region-of-interest (ROI) analysis with eXplore Vista software package. A manual 2D-ROI was drawn around the tumour in each slice where tumour was visible, and on several subsequent coronal planes containing muscle tissue at the forelimb. Results are expressed by percentage of injected dose per gram of tissue (% ID/g).
# PET imaging was performed 1 h post injection of tracers in B16BL6 tumour bearing mice at day-15 after tumours cell inoculation.
# [4] = octanol/water (PBS buffer) partition coefficient (log D); assay type: physicochemical
smiles,measurement,setting,value
CCN(CCNC(=O)c1cnc2cc(I)ccc2n1)CCOCCOCCOCCOCCOCCOCCOCC[18F] [[^18F](5)],radiochemically stable at room temperature after preparation,[1],at least 6 h
same,% ID/g (tumour),[2]; 1 h p.i.,9.81 ± 2.96 % ID/g
same,% ID/g Blood,[2]; 1 h p.i.,1.15 ± 0.19 % ID/g
same,% ID/g Bones,[2]; 1 h p.i.,1.82±0.55 % ID/g
same,% ID/g Brain,[2]; 1 h p.i.,1.03 ± 0.18 % ID/g
same,% ID/g Ceacum,[2]; 1 h p.i.,6.37 ± 4.84 % ID/g
same,% ID/g Colon + faeces,[2]; 1 h p.i.,7.39 ± 1.36 % ID/g
same,% ID/g Eyes,[2]; 1 h p.i.,12.24 ± 4.39 % ID/g
same,% ID/g Heart,[2]; 1 h p.i.,1.58 ± 0.24 % ID/g
same,% ID/g Kidney,[2]; 1 h p.i.,3.60 ± 1.74 % ID/g
same,% ID/g Liver,[2]; 1 h p.i.,2.02 ± 0.19 % ID/g
same,% ID/g Lung,[2]; 1 h p.i.,1.75 ± 0.18 % ID/g
same,% ID/g Muscle,[2]; 1 h p.i.,1.07 ± 0.35 % ID/g
same,% ID/g Pancreas,[2]; 1 h p.i.,2.63 ± 1.33 % ID/g
same,% ID/g Skin,[2]; 1 h p.i.,1.22 ± 0.22 % ID/g
same,% ID/g Small intestine,[2]; 1 h p.i.,16.68 ± 7.93 % ID/g
same,% ID/g Spleen,[2]; 1 h p.i.,2.35 ± 0.91 % ID/g
same,% ID/g Stomach,[2]; 1 h p.i.,5.87 ± 3.32 % ID/g
same,TBR Tumour-to-Blood Ratio,[2]; 1 h p.i.,8.29 ± 2.87
same,TBoR Tumour-to-Bone Ratio,[2]; 1 h p.i.,5.35 ± 0.82
same,TMR Tumour-to-Muscle Ratio,[2]; 1 h p.i.,9.48 ± 2.41
same,% ID/g (tumour),[2]; 2 h p.i.,5.81 ± 1.37 % ID/g
same,% ID/g Blood,[2]; 2 h p.i.,1.37 ± 0.30 % ID/g
same,% ID/g Bones,[2]; 2 h p.i.,2.13 ± 0.19 % ID/g
same,% ID/g Brain,[2]; 2 h p.i.,1.03 ± 0.10 % ID/g
same,% ID/g Ceacum,[2]; 2 h p.i.,12.10 ± 10.31 % ID/g
same,% ID/g Colon + faeces,[2]; 2 h p.i.,8.14 ± 1.78 % ID/g
same,% ID/g Eyes,[2]; 2 h p.i.,12.10 ± 1.85 % ID/g
same,% ID/g Heart,[2]; 2 h p.i.,1.70 ± 0.24 % ID/g
same,% ID/g Kidney,[2]; 2 h p.i.,3.52 ± 1.02 % ID/g
same,% ID/g Liver,[2]; 2 h p.i.,2.31 ± 0.64 % ID/g
same,% ID/g Lung,[2]; 2 h p.i.,1.72 ± 0.72 % ID/g
same,% ID/g Muscle,[2]; 2 h p.i.,1.04 ± 0.24 % ID/g
same,% ID/g Pancreas,[2]; 2 h p.i.,1.56 ± 0.38 % ID/g
same,% ID/g Skin,[2]; 2 h p.i.,0.94 ± 0.51 % ID/g
same,% ID/g Small intestine,[2]; 2 h p.i.,19.51 ± 5.43 % ID/g
same,% ID/g Spleen,[2]; 2 h p.i.,2.38 ± 0.87 % ID/g
same,% ID/g Stomach,[2]; 2 h p.i.,7.35 ± 4.79 % ID/g
same,TBR Tumour-to-Blood Ratio,[2]; 2 h p.i.,4.01 ± 1.12
same,TBoR Tumour-to-Bone Ratio,[2]; 2 h p.i.,2.75 ± 0.80
same,TMR Tumour-to-Muscle Ratio,[2]; 2 h p.i.,5.75 ± 1.45
same,% ID/g (tumour),[2]; 3 h p.i.,6.76±1.35 % ID/g
same,% ID/g Blood,[2]; 3 h p.i.,0.99 ± 0.20 % ID/g
same,% ID/g Bones,[2]; 3 h p.i.,3.61 ± 1.12 % ID/g
same,% ID/g Brain,[2]; 3 h p.i.,1.72 ± 0.67 % ID/g
same,% ID/g Ceacum,[2]; 3 h p.i.,29.31 ± 17.94 % ID/g
same,% ID/g Colon + faeces,[2]; 3 h p.i.,12.63 ± 7.83 % ID/g
same,% ID/g Eyes,[2]; 3 h p.i.,13.43 ± 2.17 % ID/g
same,% ID/g Heart,[2]; 3 h p.i.,3.00 ± 1.12 % ID/g
same,% ID/g Kidney,[2]; 3 h p.i.,2.60 ± 1.69 % ID/g
same,% ID/g Liver,[2]; 3 h p.i.,2.60 ± 1.37 % ID/g
same,% ID/g Lung,[2]; 3 h p.i.,2.37 ± 0.67 % ID/g
same,% ID/g Muscle,[2]; 3 h p.i.,1.11 ± 0.34 % ID/g
same,% ID/g Pancreas,[2]; 3 h p.i.,1.81 ± 0.66 % ID/g
same,% ID/g Skin,[2]; 3 h p.i.,1.47 ± 0.49 % ID/g
same,% ID/g Small intestine,[2]; 3 h p.i.,18.62 ± 13.65 % ID/g
same,% ID/g Spleen,[2]; 3 h p.i.,2.35 ± 0.98 % ID/g
same,% ID/g Stomach,[2]; 3 h p.i.,5.39 ± 3.13 % ID/g
same,TBR Tumour-to-Blood Ratio,[2]; 3 h p.i.,5.27±0.20
same,TBoR Tumour-to-Bone Ratio,[2]; 3 h p.i.,2.16 ± 1.15
same,TMR Tumour-to-Muscle Ratio,[2]; 3 h p.i.,6.64±2.69
same,in vivo defluorination,[2]; 3 h p.i.,Partial in vivo defluorinations
same,eyes uptake,[3],5.53±1.35 % ID/g
same,muscles activity,[3],1.01±0.09 % ID/g
same,tumour uptake,[3],6.63±1.64 % ID/g
same,tumour/muscle ratio,[3],6.62±1.90
same,octanol/water (PBS buffer) partition coefficient (log D),[4],0.95±0.02
CCN(CCNC(=O)c1cnc2cc(I)ccc2n1)Cc1cn(CC[18F])nn1 [[^18F](7)],radiochemically stable at room temperature after preparation,[1],at least 6 h
same,muscles activity,[3],0.84 % ID/g
same,tumour uptake,[3],14.55 % ID/g
same,tumour/muscle ratio,[3],17.41
same,octanol/water (PBS buffer) partition coefficient (log D),[4],2.22±0.03
